For test [1], the target named is Dual specificity protein kinase CLK4 (Homo sapiens) (UniProt Q9HAZ1). As to the kind of experiment: Inhibition of CLK4 (unknown origin).
In test [2] the target is Receptor-type tyrosine-protein kinase FLT3 (Homo sapiens) (UniProt P36888). As to the kind of experiment: Inhibition of FLT3 (unknown origin).
Test [3] has as its target T1, Interleukin-1 receptor-associated kinase 4 (Homo sapiens, UniProt Q9NWZ3).
T1 sequence (Q9NWZ3 whole entry): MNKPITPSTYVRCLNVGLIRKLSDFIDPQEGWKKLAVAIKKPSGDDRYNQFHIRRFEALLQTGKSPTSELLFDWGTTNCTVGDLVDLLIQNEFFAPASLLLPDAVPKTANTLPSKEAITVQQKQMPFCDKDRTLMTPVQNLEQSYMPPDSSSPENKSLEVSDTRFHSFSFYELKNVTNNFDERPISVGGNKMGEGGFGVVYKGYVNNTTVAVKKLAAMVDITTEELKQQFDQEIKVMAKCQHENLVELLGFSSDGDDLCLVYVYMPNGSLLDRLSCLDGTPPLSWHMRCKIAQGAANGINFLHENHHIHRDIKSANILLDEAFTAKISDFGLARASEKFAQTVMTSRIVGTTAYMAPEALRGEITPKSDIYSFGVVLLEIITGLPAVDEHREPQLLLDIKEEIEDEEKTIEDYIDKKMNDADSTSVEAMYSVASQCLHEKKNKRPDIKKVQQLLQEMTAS
Description: Inhibition of N-terminal GST tagged human recombinant full-length IRAK4 expressed in Sf9 insect cells assessed as reduction in substrate phosphorylation using RP7030 peptide substrate and ATP incubated for 30 mins fluorescence polarization assay. (In fluorescence polarisation assays a small probe gives low polarisation when free and higher when bound to something large.)

Test [4] addresses NT-3 growth factor receptor (Homo sapiens) (UniProt Q16288). As to the kind of experiment: Inhibition of TRKC (unknown origin).
In test [5] the target is Mitogen-activated protein kinase kinase kinase kinase 4 (Homo sapiens) (UniProt O95819). As to the kind of experiment: Inhibition of MAP4K4 (unknown origin).
Chain of Mitogen-activated protein kinase kinase kinase kinase 4 (Homo sapiens) (O95819 2-1239 limits assumed): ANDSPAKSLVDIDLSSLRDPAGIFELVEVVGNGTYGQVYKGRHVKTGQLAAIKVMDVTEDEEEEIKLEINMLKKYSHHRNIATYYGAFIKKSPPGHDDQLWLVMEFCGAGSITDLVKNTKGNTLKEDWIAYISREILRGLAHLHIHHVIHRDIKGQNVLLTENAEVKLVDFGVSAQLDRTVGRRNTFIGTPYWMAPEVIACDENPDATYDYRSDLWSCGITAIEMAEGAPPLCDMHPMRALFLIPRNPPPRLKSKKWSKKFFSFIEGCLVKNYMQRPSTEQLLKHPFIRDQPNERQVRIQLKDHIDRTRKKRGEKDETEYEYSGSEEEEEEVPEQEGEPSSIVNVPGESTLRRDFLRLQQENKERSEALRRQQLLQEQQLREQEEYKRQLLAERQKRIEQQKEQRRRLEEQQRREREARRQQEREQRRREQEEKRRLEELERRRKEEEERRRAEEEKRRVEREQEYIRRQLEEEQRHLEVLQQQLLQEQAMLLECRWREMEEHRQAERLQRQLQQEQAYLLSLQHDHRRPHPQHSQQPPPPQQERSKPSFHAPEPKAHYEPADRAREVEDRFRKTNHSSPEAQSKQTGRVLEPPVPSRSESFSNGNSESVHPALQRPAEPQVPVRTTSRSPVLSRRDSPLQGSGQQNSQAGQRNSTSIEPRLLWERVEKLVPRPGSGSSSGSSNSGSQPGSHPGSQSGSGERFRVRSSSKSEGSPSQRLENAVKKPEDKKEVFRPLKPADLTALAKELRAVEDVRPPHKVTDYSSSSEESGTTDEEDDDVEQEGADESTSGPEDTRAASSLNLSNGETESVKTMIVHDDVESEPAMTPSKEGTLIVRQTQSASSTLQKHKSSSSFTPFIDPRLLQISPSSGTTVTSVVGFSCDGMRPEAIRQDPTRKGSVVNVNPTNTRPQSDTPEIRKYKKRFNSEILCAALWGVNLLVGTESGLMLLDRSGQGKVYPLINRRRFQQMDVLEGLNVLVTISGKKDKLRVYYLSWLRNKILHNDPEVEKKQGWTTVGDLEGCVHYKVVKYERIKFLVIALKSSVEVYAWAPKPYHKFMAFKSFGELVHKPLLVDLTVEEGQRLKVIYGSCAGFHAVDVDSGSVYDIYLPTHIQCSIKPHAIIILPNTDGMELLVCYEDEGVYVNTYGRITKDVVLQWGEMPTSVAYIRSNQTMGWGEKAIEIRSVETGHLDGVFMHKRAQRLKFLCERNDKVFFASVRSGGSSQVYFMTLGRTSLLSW
The target in test [6] is BDNF/NT-3 growth factors receptor (Homo sapiens) (UniProt Q16620). As to the kind of experiment: Inhibition of TRKB (unknown origin).
Chain of BDNF/NT-3 growth factors receptor (Homo sapiens) (Q16620 32-822 limits assumed): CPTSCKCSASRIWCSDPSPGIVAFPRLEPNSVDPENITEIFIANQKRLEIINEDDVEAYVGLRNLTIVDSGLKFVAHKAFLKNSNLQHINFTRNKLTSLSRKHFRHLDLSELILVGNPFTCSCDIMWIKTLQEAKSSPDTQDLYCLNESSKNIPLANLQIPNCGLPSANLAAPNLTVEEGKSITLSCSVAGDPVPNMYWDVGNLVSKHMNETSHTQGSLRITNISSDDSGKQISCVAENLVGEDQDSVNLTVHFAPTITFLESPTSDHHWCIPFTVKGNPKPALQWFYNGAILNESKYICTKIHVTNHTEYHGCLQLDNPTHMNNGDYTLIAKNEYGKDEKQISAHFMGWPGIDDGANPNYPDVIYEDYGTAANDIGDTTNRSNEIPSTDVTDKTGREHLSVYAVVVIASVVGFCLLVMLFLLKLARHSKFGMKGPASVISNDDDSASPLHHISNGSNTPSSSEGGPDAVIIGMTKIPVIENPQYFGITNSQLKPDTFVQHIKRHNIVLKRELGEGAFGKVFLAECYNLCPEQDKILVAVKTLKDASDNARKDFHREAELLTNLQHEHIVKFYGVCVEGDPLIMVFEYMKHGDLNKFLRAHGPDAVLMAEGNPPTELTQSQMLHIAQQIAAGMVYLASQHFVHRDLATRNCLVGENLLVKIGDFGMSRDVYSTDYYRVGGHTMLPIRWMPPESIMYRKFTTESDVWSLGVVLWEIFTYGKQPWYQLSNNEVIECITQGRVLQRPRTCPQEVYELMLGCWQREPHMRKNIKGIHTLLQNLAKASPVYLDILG
Test [7] addresses High affinity nerve growth factor receptor (Homo sapiens) (UniProt P04629). As to the kind of experiment: Inhibition of TRKA (unknown origin).

Molecules are shown by their SMILES. The source made the active and inactive calls. The calls are words filed in the database; no cut-off is given here.

Chain of Receptor-type tyrosine-protein kinase FLT3 (Homo sapiens) (P36888 whole entry): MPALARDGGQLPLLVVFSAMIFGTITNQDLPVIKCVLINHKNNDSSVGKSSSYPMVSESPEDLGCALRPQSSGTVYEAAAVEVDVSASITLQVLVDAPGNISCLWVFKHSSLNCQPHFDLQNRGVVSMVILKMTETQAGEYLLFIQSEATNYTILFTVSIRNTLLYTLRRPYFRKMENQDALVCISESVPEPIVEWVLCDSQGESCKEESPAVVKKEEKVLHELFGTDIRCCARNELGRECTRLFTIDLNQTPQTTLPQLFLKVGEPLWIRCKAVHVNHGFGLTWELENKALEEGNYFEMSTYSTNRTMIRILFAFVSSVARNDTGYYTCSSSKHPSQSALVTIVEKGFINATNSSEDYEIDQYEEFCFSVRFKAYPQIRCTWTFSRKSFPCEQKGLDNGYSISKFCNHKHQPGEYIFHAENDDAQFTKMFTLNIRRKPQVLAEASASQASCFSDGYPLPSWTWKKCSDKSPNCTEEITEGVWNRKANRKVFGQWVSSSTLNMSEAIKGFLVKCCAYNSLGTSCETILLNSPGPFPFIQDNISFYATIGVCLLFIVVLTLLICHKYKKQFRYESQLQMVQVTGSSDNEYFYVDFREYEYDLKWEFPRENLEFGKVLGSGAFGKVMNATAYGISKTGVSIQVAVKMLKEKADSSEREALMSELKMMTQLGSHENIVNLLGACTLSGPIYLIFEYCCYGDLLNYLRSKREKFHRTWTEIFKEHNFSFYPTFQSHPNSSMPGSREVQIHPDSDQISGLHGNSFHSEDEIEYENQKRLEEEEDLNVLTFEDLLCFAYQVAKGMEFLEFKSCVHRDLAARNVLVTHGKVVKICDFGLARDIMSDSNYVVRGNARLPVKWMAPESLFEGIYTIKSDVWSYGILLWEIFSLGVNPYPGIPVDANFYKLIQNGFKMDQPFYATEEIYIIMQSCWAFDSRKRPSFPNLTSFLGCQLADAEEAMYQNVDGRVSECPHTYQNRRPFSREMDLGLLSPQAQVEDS
Chain of High affinity nerve growth factor receptor (Homo sapiens) (P04629 33-796 limits assumed): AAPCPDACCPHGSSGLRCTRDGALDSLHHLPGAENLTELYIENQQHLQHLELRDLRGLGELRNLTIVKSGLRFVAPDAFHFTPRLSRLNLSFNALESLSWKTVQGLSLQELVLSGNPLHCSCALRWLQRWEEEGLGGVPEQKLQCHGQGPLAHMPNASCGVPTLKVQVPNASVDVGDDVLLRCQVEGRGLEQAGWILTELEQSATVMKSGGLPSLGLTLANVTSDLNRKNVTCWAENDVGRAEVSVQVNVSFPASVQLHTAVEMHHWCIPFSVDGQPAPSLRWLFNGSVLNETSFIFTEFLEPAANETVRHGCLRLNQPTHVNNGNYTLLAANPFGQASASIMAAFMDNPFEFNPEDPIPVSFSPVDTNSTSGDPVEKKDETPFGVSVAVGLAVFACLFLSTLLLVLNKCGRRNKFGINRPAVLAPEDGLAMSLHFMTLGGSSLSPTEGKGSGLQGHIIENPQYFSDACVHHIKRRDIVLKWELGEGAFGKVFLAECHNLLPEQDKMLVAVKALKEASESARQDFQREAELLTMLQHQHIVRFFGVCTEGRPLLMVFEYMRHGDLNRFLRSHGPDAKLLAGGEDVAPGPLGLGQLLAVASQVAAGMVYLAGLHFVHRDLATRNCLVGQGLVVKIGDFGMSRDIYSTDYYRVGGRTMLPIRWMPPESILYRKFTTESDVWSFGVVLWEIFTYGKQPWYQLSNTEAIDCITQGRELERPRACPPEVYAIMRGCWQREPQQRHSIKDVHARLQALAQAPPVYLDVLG
Chain of NT-3 growth factor receptor (Homo sapiens) (Q16288 32-839 limits assumed): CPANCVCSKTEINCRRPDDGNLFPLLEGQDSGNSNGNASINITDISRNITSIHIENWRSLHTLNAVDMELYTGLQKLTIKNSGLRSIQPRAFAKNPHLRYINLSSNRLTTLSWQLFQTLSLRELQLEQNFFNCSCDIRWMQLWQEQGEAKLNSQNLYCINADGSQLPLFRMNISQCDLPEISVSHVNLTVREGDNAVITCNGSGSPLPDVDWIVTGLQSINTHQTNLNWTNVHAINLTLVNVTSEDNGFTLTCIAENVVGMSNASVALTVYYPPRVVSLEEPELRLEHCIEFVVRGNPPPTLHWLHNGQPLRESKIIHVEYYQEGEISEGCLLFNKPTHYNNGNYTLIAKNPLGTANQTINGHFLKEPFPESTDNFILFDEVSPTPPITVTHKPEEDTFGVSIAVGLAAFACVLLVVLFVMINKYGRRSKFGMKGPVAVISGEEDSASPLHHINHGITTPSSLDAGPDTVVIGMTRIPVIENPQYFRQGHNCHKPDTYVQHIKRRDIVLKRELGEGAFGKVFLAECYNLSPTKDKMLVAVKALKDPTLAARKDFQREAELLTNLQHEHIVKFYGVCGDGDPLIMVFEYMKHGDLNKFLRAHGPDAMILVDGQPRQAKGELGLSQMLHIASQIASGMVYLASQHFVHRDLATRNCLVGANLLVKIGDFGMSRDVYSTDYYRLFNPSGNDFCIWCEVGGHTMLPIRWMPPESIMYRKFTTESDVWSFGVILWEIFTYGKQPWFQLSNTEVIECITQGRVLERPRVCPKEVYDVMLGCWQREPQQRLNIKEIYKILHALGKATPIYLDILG
Chain of Dual specificity protein kinase CLK4 (Homo sapiens) (Q9HAZ1 whole entry, looked up): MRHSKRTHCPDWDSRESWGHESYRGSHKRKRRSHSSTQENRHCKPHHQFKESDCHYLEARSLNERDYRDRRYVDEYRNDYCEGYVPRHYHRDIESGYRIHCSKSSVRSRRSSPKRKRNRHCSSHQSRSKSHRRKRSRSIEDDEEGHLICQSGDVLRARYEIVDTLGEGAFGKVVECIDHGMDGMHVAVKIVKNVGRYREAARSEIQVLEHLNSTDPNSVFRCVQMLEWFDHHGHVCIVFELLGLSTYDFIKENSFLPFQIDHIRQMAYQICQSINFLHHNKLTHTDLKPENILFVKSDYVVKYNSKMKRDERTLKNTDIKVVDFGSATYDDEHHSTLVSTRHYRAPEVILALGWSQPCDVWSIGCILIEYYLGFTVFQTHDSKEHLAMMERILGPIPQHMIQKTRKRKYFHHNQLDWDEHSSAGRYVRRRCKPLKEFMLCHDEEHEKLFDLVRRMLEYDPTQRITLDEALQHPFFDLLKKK

As usually defined, the IC50 is the midpoint of a concentration-inhibition curve. With `OC[C@H]1C[C@@H](Nc2nc(NC3CCCCC3)ncc2-c2nc3ccccc3s2)[C@H](O)[C@@H]1O`, the inhibition result in test [1], in test [2], in test [4], in test [5], in test [6] and in test [7] was “Active” throughout. Also, the IC50 in test [3] was determined as 3010 nM.

With `OC[C@H]1C[C@@H](Nc2nc(NC3CCC3)ncc2-c2nc3ccccc3s2)[C@H](O)[C@@H]1O`, the inhibition entry in test [1], in test [2], in test [4], in test [5], in test [6] and in test [7] was “Active” each time. The IC50 in test [3] was 403 nM.

With `Cn1c(-c2cnc(N)nc2N[C@@H]2C[C@H](CO)[C@@H](O)[C@H]2O)nc2ccccc21`, the inhibition entry in test [1], in test [2], in test [4], in test [5], in test [6] and in test [7] was “Active” each time. Moreover, the half-inhibitory concentration (IC50) in test [3] is > 20000 nM.

Consider `CCCNc1nc(C)c(-c2nc3ccccc3s2)c(N[C@@H]2CC[C@@H](O)[C@H]2O)n1` (racemic), for which the inhibition entry in test [1], in test [2], in test [4], in test [5], in test [6] and in test [7] was “Active” throughout. Besides, the concentration for half-maximal inhibition (IC50) in test [3] was > 20000 nM.

For `Cc1cc(Nc2ncc(-c3nc4ccccc4s3)c(N[C@@H]3C[C@H](CO)[C@@H](O)[C@H]3O)n2)ccn1`, the inhibition result in test [1], in test [2], in test [4], in test [5], in test [6] and in test [7] was “Active” in each case. Also, the IC50 in test [3] was 1000 nM.

For the molecule `N#Cc1nc(N)nc(N[C@@H]2C[C@H](CO)[C@@H](O)[C@H]2O)c1-c1nc2ccccc2s1`, the inhibition result in test [1], in test [2], in test [4], in test [5], in test [6] and in test [7] was “Active” each time. Further, the IC50 in test [3] was > 20000 nM.

On to `Cc1nc(NCC2CC2)nc(N[C@@H]2C[C@H](CO)[C@@H](O)[C@H]2O)c1-c1nc2ccccc2s1`, for which the inhibition result in test [1], in test [2], in test [4], in test [5], in test [6] and in test [7] was “Active” each time. Besides, the concentration for half-maximal inhibition (IC50) in test [3] is > 20000 nM.

For `Nc1ncc(-c2nc3ccccc3s2)c(N[C@@H]2C[C@H](CO)[C@@H](O)[C@H]2O)n1`, the inhibition entry in test [1], in test [2], in test [4], in test [5], in test [6] and in test [7] was “Active” in each case. For the same molecule, in test [3], the IC50 was 240 nM.

Turning to `Cc1nc(N)nc(N[C@@H]2C[C@H](CO)[C@@H](O)[C@H]2O)c1-c1nc2ccccc2s1`, the inhibition result in test [1], in test [2], in test [4], in test [5], in test [6] and in test [7] was “Active” each time. Further, the half-inhibitory concentration (IC50) in test [3] is 1060 nM.

For the molecule `CCCNc1nc(C)c(-c2nc3ccccc3s2)c(N2CCOCC2)n1`, the inhibition entry in test [1], in test [2], in test [4], in test [5], in test [6] and in test [7] was “Active” in each case. Besides, in test [3], the 50% inhibitory concentration (IC50) is > 20000 nM.

Consider `COc1nc(N)nc(N[C@@H]2C[C@H](CO)[C@@H](O)[C@H]2O)c1-c1nc2ccccc2s1`, for which the inhibition result in test [1], in test [2], in test [4], in test [5], in test [6] and in test [7] was “Active” throughout. In addition, the IC50 in test [3] is > 20000 nM.

Consider `CCCNc1ncc(-c2nc3ccccc3s2)c(N[C@@H]2C[C@H](CO)[C@@H](O)[C@H]2O)n1`, for which the inhibition result in test [1], in test [2], in test [4], in test [5], in test [6] and in test [7] was “Active” in each case. Further, the half-inhibitory concentration (IC50) in test [3] was determined as 1190 nM.

As for `CCCNc1nc(C)c(-c2nc3ccccc3s2)c(N[C@H]2CC[C@@H](CO)C2)n1` (racemic), the inhibition entry in test [1], in test [2], in test [4], in test [5], in test [6] and in test [7] was “Active” throughout. In addition, the 50% inhibitory concentration (IC50) in test [3] was > 20000 nM.

Turning to `OC[C@H]1C[C@@H](Nc2nc(Nc3cncnc3)ncc2-c2nc3ccccc3s2)[C@H](O)[C@@H]1O`, the inhibition entry in test [1], in test [2], in test [4], in test [5], in test [6] and in test [7] was “Active” each time. Besides, the IC50 in test [3] is 6000 nM.

Take `Nc1nc(N)c(-c2nc3ccccc3s2)c(N[C@@H]2C[C@H](CO)[C@@H](O)[C@H]2O)n1`: the inhibition result in test [1], in test [2], in test [4], in test [5], in test [6] and in test [7] was “Active” in each case. Besides, in test [3], the half-inhibitory concentration (IC50) came to 5190 nM.

Regarding `OC[C@H]1C[C@@H](Nc2nc(NC3CCOCC3)ncc2-c2nc3ccccc3s2)[C@H](O)[C@@H]1O`, the inhibition result in test [1], in test [2], in test [4], in test [5], in test [6] and in test [7] was “Active” each time. Further, the IC50 in test [3] was found to be 1080 nM.

For the molecule `Cc1cc(Nc2ncc(-c3nc4ccccc4s3)c(N[C@@H]3C[C@H](CO)[C@@H](O)[C@H]3O)n2)cc(C)n1`, the inhibition entry in test [1], in test [2], in test [4], in test [5], in test [6] and in test [7] was “Active” each time. Also, in test [3], the concentration for half-maximal inhibition (IC50) turned out to be 1000 nM.

For `COCCCNc1ncc(-c2nc3ccccc3s2)c(N[C@@H]2C[C@H](CO)[C@@H](O)[C@H]2O)n1`, the inhibition entry in test [1], in test [2], in test [4], in test [5], in test [6] and in test [7] was “Active” throughout. Besides, the IC50 in test [3] was 228 nM.

`OC[C@H]1C[C@@H](Nc2nc(Nc3ccccc3)ncc2-c2nc3ccccc3s2)[C@H](O)[C@@H]1O`: the inhibition entry in test [1], in test [2], in test [4], in test [5], in test [6] and in test [7] was “Active” each time. In addition, the 50% inhibitory concentration (IC50) in test [3] came to 42000 nM.

These data come from ChEMBL document CHEMBL3400143, “Discovery and hit-to-lead optimization of 2,6-diaminopyrimidine inhibitors of interleukin-1 receptor-associated kinase 4” (Bioorg Med Chem Lett, 2015).
